Measurements as given in US20260021119A1, “TETRACYCLINE DERIVATIVES” (ICM (INSTITUT DU CERVEAU ET DE LA MOELLE ÉPINIÈRE), priority 2022, published 2026).
Values after ≈ are worked out from the molar mass of the structure shown. Like-named read-outs stand apart in the source and are kept apart here.

Tests used:
[1] = tested on: microglia cells (TNF α release under LPS); assay: Anti-inflammatory effect in microglia, TNF α release inhibition under LPS exposure; assay type: cell-based; details: TNF α release inhibition under LPS exposure, determined graphically; for IC50: Microglia, read-out: Anti inflammatory effects (IC 50 in μM)
Experimental: Microglia is in charge of the protection of the neurons. However, under stress conditions, microglia cells are responsible of inflammatory phenomena, leading eventually to the death of the neurons. The anti-inflammatory effects of 5 μM and 20 μM of compound of formula (B) presented in Example 1, of 5 μM and 20 μM of compound of formula (Ia) according to the present invention and of 50 μM of doxycycline (DOX) were evaluated, compared to the effect of 2.5 μM of dexamethasone (DEX). Microglia is in charge of the protection of the neurons. However, under stress conditions, microglia cells are responsible of inflammatory phenomena, leading eventually to the death of the neurons. The anti-inflammatory effects of 10 μM and 20 μM of compound of formula (C) (“10 μM (C)” and “20 μM (C)”) and of 10 μM and 20 μM of compound of formula (Ia) according to the present invention (“10 μM (Ia)” and “20 μM (Ia)”) were evaluated, compared to the effect of 2.5 μM of dexamethasone (“DEX”). The properties of tetracycline derivatives, including the compound of formula (Ia) according to the present invention, were compared regarding the neuroprotection, anti-inflammatory effects, anti-aggregant activity, and antibiotic activity. The properties were evaluated as described herein above. EC50s, IC50s determined graphically, *Rescue of dopamine neurons from spontaneous oxidative stress; ** TNF α release inhibition under LPS exposure, ^#Weak antibiotic activity on only 1 of the 3 bacterial strains (i.e. S aureus). ##Strong antibiotic activity on all 3 bacterial strains. ^###Significant antibiotic activity on two bacterial strains.

[2] = tested on: Gram+ and Gram- bacteria (S. aureus, E. coli, E. faecalis, P. aeruginosa); assay: Antibiotic activity, summary over the bacterial strains (Examples 3 and 7); assay type: cell-based; design: key to Antibiotic activity: low: Weak antibiotic activity on only 1 of the 3 bacterial strains (i.e. S aureus); high: Strong antibiotic activity on all 3 bacterial strains; Significant antibiotic activity on two bacterial strains; details: summary over bacterial strains
Experimental: (§1) Bacterial strains used in this study were: S. aureus (ATCC25923), E. coli (ATCC25922), E. faecalis (ATCC29212) and P. aeruginosa (PA01). Strains were maintained at −80° C. in 15% (v/v) glycerol for cryoprotection. Bacteria were routinely grown in Mueller-Hinton (MH) broth at 37° C.
(§2) The susceptibility of bacterial strains to antibiotics and compounds was determined in microplates using the standard broth dilution method in accordance with the recommendations of the Comité de 1′Antibiogramme de la Société Française de Microbiologie (CA-SFM). (Members of the SFM Antibiogram Committee, R. Int. J. Antimicrob. Agents 2003, 21, 364). Briefly, the Minimal Inhibitory Concentrations (MICs) were determined with an inoculum of 10^5 CFU in 200 μL of MH broth containing two-fold serial dilutions of each drug. […] To determine all MICs, the measurements were independently repeated in triplicate.
(§3) The compound of formula (Ia) according to the invention was tested against clinical isolates Gram-bacteria (P. aeruginosa, E. coli) and Gram+ bacteria (S. aureus, E. faecalis). Minimum inhibitory concentrations (MIC) were tentatively determined and compared to known antibiotic tetracyclines (doxycycline, demeclocycline, chlortetracycline) and to the compound of formula (B) disclosed in Example 1 of the present application. The test was reproduced twice and the average MIC were calculated.
(§4) The properties of tetracycline derivatives, including the compound of formula (Ia) according to the present invention, were compared regarding the neuroprotection, anti-inflammatory effects, anti-aggregant activity, and antibiotic activity. The properties were evaluated as described herein above.
(§5) EC50s, IC50s determined graphically, *Rescue of dopamine neurons from spontaneous oxidative stress; ** TNF α release inhibition under LPS exposure, ^#Weak antibiotic activity on only 1 of the 3 bacterial strains (i.e. S aureus). ##Strong antibiotic activity on all 3 bacterial strains. ^###Significant antibiotic activity on two bacterial strains.

alpha-synuclein = alpha-synuclein (Homo sapiens, UniProt P37840); assay: alpha-synuclein aggregation, thioflavin T (ThT) fluorescence; assay type: biochemical; details: 20 μM
Experimental: The antiaggregant effect of the compound of formula (Ia) according to the present invention on alpha-synuclein (αS) was evaluated in vitro by measuring the fluorescence intensity of the probe thioflavin T (ThT), a molecule that specifically binds to cross-β structures characteristic of amyloid-like aggregation. The compound of formula (Ia) was dissolved in dimethylsulfoxide to reach a concentration of […]. In this assay, 70 μM of alpha-synuclein was incubated with and without 10 μM, 20 μM and 50 μM of the compound of formula (Ia), under orbital agitation (600 rpm), at 37° C., for 5 days. After the incubation time, Tht was added to each sample and changes in the emission fluorescence spectra (λex=450 and λem=[…]) was monitored using a Horiba Fluoromax CP4 spectrofluorometer.

S. aureus ATCC 25923 [3] = assay: MIC, broth dilution (Example 3); assay type: cell-based; details: Staphylococcus aureus, ATCC25923; 18 h at 37° C., MH broth
Experimental: as §1, §2, §3

E. coli ATCC 25922 = assay: MIC, broth dilution (Example 3); assay type: cell-based; details: Escherichia coli, ATCC25922; 18 h at 37° C., MH broth
Experimental: as §1, §2, §3

P. aeruginosa PA01 [4] = assay: MIC, broth dilution (Example 3); assay type: cell-based; details: Pseudomonas aeruginosa, 18 h at 37° C., MH broth
Experimental: as §1, §2, §3

[5] = tested on: dopaminergic neurons (TH+ neurons); assay: Neuroprotection: rescue of dopamine neurons from spontaneous oxidative stress in primary cultures; assay type: cell-based; details: for EC50: Neuron, read-out: Neuroprotection (EC 50 μM)
Experimental: In primary cultures of dopaminergic neurons, TH+ neurons suffer from oxidative stress, leading to the death of the neurons after a few days. When cultured in the presence of a positive reference (apotransferrin), the dopaminergic neurons survive. The neuroprotective effects of 10 μM of doxycycline (DOX) and of 3 μM or 5 μM of the compound of formula (Ia) according to the present invention were evaluated, compared to the effect of 100 μg/mL of apotransferrin (APO).
as §4, §5

E. faecalis ATCC 29212 [6] = assay: MIC, broth dilution (Example 3); assay type: cell-based; details: Enterococcus faecalis, ATCC29212; 18 h at 37° C., MH broth
Experimental: as §1, §2, §3

[7] = Brain penetration after single subcutaneous injection; assay type: in vivo; details: mouse, brain and serum, sc; 40 mg/kg single subcutaneous injection, Swiss mice, 30 min to 24 h, n=3; read-out: brain-to-plasma ratio calculated from the area under the concentration time curves
Experimental: Adult Swiss mice received a single subcutaneous injection of 40 mg/kg of the compound of formula (Ia) according to the present invention, the compound of formula (C), or doxycycline diluted in saline with 5% DMSO and 5% Tween 80 (doxycycline was used as a reference tetracycline). The mice were sacrificed 30 min, 1 h, 8 h, and 24 h after treatment. After sacrifice, brain and serum samples were collected and processed at each time point for tetracycline dosage, using an UHPLC system coupled with a triple quadrupole mass spectrometer LCMS-8030 (Shimadzu Corporation, Kyoto, Japan).

dopamine neurons = assay: Neuroprotection in midbrain mouse cultures, survival of TH+ dopamine neurons; assay type: cell-based; details: 10 μM, div14
Experimental: (§6) Midbrain mouse cultures were subjected to a maturation step until day in vitro (div) 7, and then gradually exposed to phenol red formulated DMEM/Nutrient mixture F12 Ham supplemented with 20 μg/mL of insulin and 2 μM of the NMDA receptor blocker MK-801. Under these conditions, which favor low-level, sustained oxidative insults, and lead ultimately to dopamine cell death, treatments with the compound of formula (Ib) according to the invention (at a concentration ranging from 0.1 to 5 μM) were performed or not, as well as treatments with the reference tetracycline antibiotic doxycycline (DOX; 10 μM) and the glycoprotein apotransferrin (APO; 100 μg/mL), the latter being used as reference neuroprotectant. At div14, cultures were fixed, and then processed for tyrosine hydroxylase (TH) immunocytochemistry to estimate the survival of dopamine neurons.
as §6, with “(Ic)” for “(Ib)”, “with” for “with the reference tetracycline antibiotic doxycycline (DOX; 10 μM) and”

4 test bacterial strains = assay: Antimicrobial effects, summary over the 4 test bacterial strains (Example 9); assay type: cell-based
Excerpt: (§7) Bacterial strains used in this study were: S. aureus (ATCC25923), E. coli (ATCC28922), E. faecalis (ATCC29212) and P. aeruginosa (PA01). The minimum inhibitory concentrations (MICs) were estimated using standardized protocols (Mawabo et al, J. Infect. Public Health 2015).

S. aureus ATCC 25923 [8] = assay: MIC, standardized protocols (Example 9); assay type: cell-based; details: Staphylococcus aureus, ATCC25923
Excerpt: as §7

E. faecalis ATCC 29212 [9] = assay: MIC, standardized protocols (Example 9); assay type: cell-based; details: Enterococcus faecalis, ATCC29212
Excerpt: as §7

E. coli ATCC 28922 = assay: MIC, standardized protocols (Example 9); assay type: cell-based; details: Escherichia coli, ATCC28922
Excerpt: as §7

P. aeruginosa PA01 [10] = assay: MIC, standardized protocols (Example 9); assay type: cell-based; details: Pseudomonas aeruginosa
Excerpt: as §7

[11] = rescue of dopamine neurons from spontaneous oxidative stress, determined graphically

Row | SMILES | Anti inflammatory effects (IC 50 in μM) [1] | Anti aggregant activity at 20 μM (alpha-synuclein) | MIC (S. aureus ATCC 25923 [3]) | MIC (E. coli ATCC 25922) | MIC (P. aeruginosa PA01 [4]) | Neuroprotection (EC 50 μM) [5, 11] | IC50 [1] | MIC (E. faecalis ATCC 29212 [6]) | Antibiotic activity [2] | other results
1 | C[C@H]1c2cccc(O)c2C(=O)C2=C(O)[C@]3(O)C(=O)C(C(N)=O)=C(O)C[C@@H]3[C@@H](O)[C@@H]21 [Compound of formula (B)] | no | yes | 25 µM | 200 µM | > 2000 µM | no | – | – | low | –
2 | CN(C)[C@@H]1C(O)=C(C(N)=O)C(=O)[C@@]2(O)C(O)=C3C(=O)c4c(O)ccc(Cl)c4[C@@](C)(O)[C@H]3C[C@@H]12 [Chlortetracycline] | – | yes | 1.6 µM (≈ 0.766 µg/mL) | 6.25 µM (≈ 2.99 µg/mL) | 32 µM (≈ 15.3 µg/mL) | no | 1 µM | 1.6 µM (≈ 0.766 µg/mL) | high | –
3 | CN(C)[C@@H]1C(O)=C(C(N)=O)C(=O)[C@@]2(O)C(O)=C3C(=O)c4c(O)ccc(Cl)c4[C@@H](O)[C@H]3C[C@@H]12 [Demeclocycline] | – | – | 0.4 µM (≈ 0.186 µg/mL) | 3.12 µM (≈ 1.45 µg/mL) | 32 µM (≈ 14.9 µg/mL) | – | – | 0.4 µM (≈ 0.186 µg/mL) | – | –
4 | CN(C)[C@@H]1C(O)=C(C(N)=O)C(=O)[C@@]2(O)C(O)=C3C(=O)c4c(O)ccc(Cl)c4[C@@H](O)C3CC12 (stereo partly drawn) [Compound of formula (D)] | no | yes | – | – | – | – | – | – | high^## | EC50 [5, 11]: 1.84 µM
5 | CC1(O)c2c(Cl)ccc(O)c2C(=O)C2=C(O)C3C(=O)C(C(N)=O)=C(O)CC3CC21 (stereo not drawn) [Compound of formula (E)] | no | yes | – | – | – | – | – | – | low | EC50 [5]: 2.01 µM
6 | CN(C)[C@@H]1C(O)=C(C(N)=O)C(=O)[C@@]2(O)C(O)=C3C(=O)c4c(O)cccc4[C@@](C)(O)[C@H]3[C@H](O)[C@@H]12 [Oxytetracycline] | – | – | – | – | – | – | – | – | – | antimicrobial effects against the 4 test bacterial strains (4 test bacterial strains): exerts antimicrobial effects against 3 of the 4 test bacterial strains; MIC (S. aureus ATCC 25923 [8]): 3.12 µM (≈ 1.44 µg/mL); MIC (E. faecalis ATCC 29212 [9]): 3.12 µM (≈ 1.44 µg/mL); MIC (E. coli ATCC 28922): 3.12 µM (≈ 1.44 µg/mL); MIC (P. aeruginosa PA01 [10]): 50 µM (≈ 23 µg/mL)
7 | CC1c2ccc(-c3ccccc3)c(O)c2C(=O)C2=C(O)C3(O)C(=O)C(C(N)=O)=C(O)CC3[C@@H](O)C21 (stereo partly drawn) [Compound of formula (G)] | – | yes | – | – | – | no | 8 µM | – | low | –

Further lines, with some results ahead:

Row | Anti inflammatory effects (IC 50 in μM) [1] | Anti aggregant activity at 20 μM (alpha-synuclein) | MIC (S. aureus ATCC 25923 [3]) | MIC (E. coli ATCC 25922) | MIC (P. aeruginosa PA01 [4]) | Neuroprotection (EC 50 μM) [5, 11] | IC50 [1] | MIC (E. faecalis ATCC 29212 [6]) | SMILES | Antibiotic activity [2] | other results
8 | – | yes | 0.4 µM (≈ 0.178 µg/mL) | 3.12 µM (≈ 1.39 µg/mL) | 64 µM (≈ 28.4 µg/mL) | – | 45 µM | 0.4 µM (≈ 0.178 µg/mL) | C[C@H]1c2cccc(O)c2C(=O)C2=C(O)[C@]3(O)C(=O)C(C(N)=O)=C(O)[C@@H](N(C)C)[C@@H]3[C@@H](O)[C@@H]21 [Doxycycline] | high | Kp [7]: 0.11 ± 0.03; neuroprotective effect (survival of dopamine neurons) (dopamine neurons): shows a neuroprotective effect; neuroprotective effect ([5]; 10 μM, compared to apotransferrin 100 μg/mL): shows a neuroprotective effect; EC50 [5, 11]: 5.2 µM
9 | – | yes | – | – | – | no | 8 µM | – | NC(=O)C1=C(O)C[C@@H]2C[C@@H]3Cc4cccc(O)c4C(=O)C3=C(O)[C@]2(O)C1=O [Compound of formula (F), incyclinide] | Significant^### | –
